Data as given in BindingDB's records for patent US20240270732 (Chengdu Biobel Biotechnology Co., 2024).

Molecular target: T1, Receptor-interacting serine/threonine-protein kinase 1 (Homo sapiens, UniProt Q13546)
T1 sequence (Q13546 whole entry): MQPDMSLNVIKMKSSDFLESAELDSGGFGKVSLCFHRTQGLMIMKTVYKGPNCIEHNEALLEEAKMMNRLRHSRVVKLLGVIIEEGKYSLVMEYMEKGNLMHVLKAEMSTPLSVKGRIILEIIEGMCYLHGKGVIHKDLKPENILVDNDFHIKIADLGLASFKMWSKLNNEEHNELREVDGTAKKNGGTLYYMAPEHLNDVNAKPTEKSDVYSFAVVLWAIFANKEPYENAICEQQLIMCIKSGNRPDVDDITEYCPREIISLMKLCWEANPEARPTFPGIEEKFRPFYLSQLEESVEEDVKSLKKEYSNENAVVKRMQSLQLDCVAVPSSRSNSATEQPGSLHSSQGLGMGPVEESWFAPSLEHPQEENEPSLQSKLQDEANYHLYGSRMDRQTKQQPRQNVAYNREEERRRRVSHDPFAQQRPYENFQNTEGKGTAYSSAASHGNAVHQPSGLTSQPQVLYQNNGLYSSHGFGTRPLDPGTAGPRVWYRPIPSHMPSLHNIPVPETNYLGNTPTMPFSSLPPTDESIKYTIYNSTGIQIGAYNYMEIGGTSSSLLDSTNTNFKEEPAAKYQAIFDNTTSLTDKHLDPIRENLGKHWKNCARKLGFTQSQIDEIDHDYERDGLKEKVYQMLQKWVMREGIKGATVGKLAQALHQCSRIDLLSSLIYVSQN
Experiment: Inhibitory Activity Assay
Protocol: The compound of the present invention and the control compound were dissolved in the assay buffer (50 mM Hepes pH 7.5, 50 mM NaCl, 30 mM MgCl2, 1 mM DTT, 0.02% CHAPS, 0.5 mg/mL BSA), and diluted in a ratio of 1:1.5 using a 22-point titration (high concentration 2 μM), and then added to a 384-well plate. […] After completion of the reaction, 5 μL of ADP-Glo reagent containing 0.02% CHAPS was added to each well and incubated at room temperature for 1 h to terminate the kinase reaction and use up all remaining ATP. Then, 5 μL of ADP-Glo detection solution containing 0.02% CHAPS was added to each well and incubated at room temperature for 30 min to measure the emittance intensity.

Row | SMILES | IC50
1 | C#CCN1CCN(CC#Cc2ccc3c(c2)N(C)C(=O)[C@@H](NC(=O)c2nnn(Cc4ccccc4)n2)[C@@H](C)O3)CC1 [US20240270732, Compound I-55] | 8.91 nM
2 | C#CCN1CCN(CC#Cc2ccc3c(c2)N(C)C(=O)[C@@H](NC(=O)c2ncn(Cc4cccc(O)c4)n2)[C@@H](C)O3)CC1 [US20240270732, Compound I-75] | 21 nM
3 | C#CCOCCOCCOCCOCCOCC#Cc1ccc2c(c1)N(C)C(=O)[C@@H](NC(=O)c1n[nH]c(Cc3ccccc3)n1)CO2 [US20240270732, Compound I-82-2] | 7.15 nM
4 | C#CCN1CCN(CC#Cc2ccc3c(c2)N(C)C(=O)[C@@H](NC(=O)c2cn(Cc4ccccc4)cn2)CO3)CC1 [US20240270732, Compound I-61] | 8.43 nM
5 | C#CCN1CCN(CC#Cc2ccc3c(c2)N(C)C(=O)[C@@H](NC(=O)c2cnn(Cc4ccccc4)c2)[C@@H](C)O3)CC1 [US20240270732, Compound I-47] | 13.6 nM
6 | C[C@H]1Oc2ccc(C#CCN3CCN(CC#Cc4ccc5c(c4)N(C)C(=O)[C@@H](NC(=O)c4nnn(Cc6ccccc6)n4)[C@@H](C)O5)CC3)cc2N(C)C(=O)[C@H]1NC(=O)c1ncn(Cc2ccccc2)n1 [US20240270732, Compound I-25] | 3.39 nM
7 | C[C@H]1Oc2ccc(C#CCN3CCN(CC#Cc4ccc5c(c4)N(C)C(=O)[C@@H](NC(=O)c4noc(Cc6ccccc6)n4)[C@@H](C)O5)CC3)cc2N(C)C(=O)[C@H]1NC(=O)c1noc(Cc2ccccc2)n1 [US20240270732, Compound I-52] | 13.3 nM
8 | C#CCN1CCN(CC#Cc2ccc3c(c2)N(C)C(=O)[C@@H](NC(=O)c2noc(Cc4ccccc4)n2)[C@@H](C)O3)CC1 [US20240270732, Compound I-51] | 15.9 nM
9 | C[C@H]1Oc2ccc(C#CCN3CCN(CC#Cc4ccc5c(c4)N(C)C(=O)[C@@H](NC(=O)c4ncn(Cc6ccccc6)n4)CO5)CC3)cc2N(C)C(=O)[C@H]1NC(=O)c1n[nH]c(Cc2ccccc2)n1 [US20240270732, Compound I-5] | 3.35 nM
10 | C[C@H]1Oc2ccc(C#CCN3CCN(CC#Cc4ccc5c(c4)N(C)C(=O)[C@@H](NC(=O)c4nnn(Cc6ccccc6)n4)CO5)CC3)cc2N(C)C(=O)[C@H]1NC(=O)c1n[nH]c(Cc2ccccc2)n1 [US20240270732, Compound I-7] | 7.81 nM
11 | CN1C(=O)[C@@H](NC(=O)c2n[nH]c(Cc3ccccc3)n2)COc2ccc(C#CCN3CCN(CC#Cc4ccc5c(c4)N(C)C(=O)[C@@H](NC(=O)c4n[nH]c(Cc6ccccc6)n4)CO5)CC3)cc21 [US20240270732, Compound I-11] | 1.96 nM
12 | CN1C(=O)[C@@H](NC(=O)c2cn(Cc3ccccc3)cn2)COc2ccc(C#CCN3CCN(CC#Cc4ccc5c(c4)N(C)C(=O)[C@@H](NC(=O)c4ncn(Cc6ccccc6)n4)CO5)CC3)cc21 [US20240270732, Compound I-34] | 4.68 nM
13 | C[C@H]1Oc2ccc(C#CCN3CCN(CC#Cc4ccc5c(c4)N(C)C(=O)[C@@H](NC(=O)c4n[nH]c(Cc6cccnc6)n4)[C@@H](C)O5)CC3)cc2N(C)C(=O)[C@H]1NC(=O)c1n[nH]c(Cc2cccnc2)n1 [US20240270732, Compound I-68] | 16 nM
14 | C[C@H]1Oc2ccc(C#CCN3CCN(CC#Cc4ccc5c(c4)N(C)C(=O)[C@@H](NC(=O)c4n[nH]c(Cc6ccccc6)n4)CO5)CC3)cc2N(C)C(=O)[C@H]1NC(=O)c1ncn(Cc2ccccc2)n1 [US20240270732, Compound I-12] | 2.75 nM
15 | C[C@H]1Oc2ccc(C#CCN3CCN(CC#Cc4ccc5c(c4)N(C)C(=O)[C@@H](NC(=O)c4ncc(Cc6ccccc6)o4)[C@@H](C)O5)CC3)cc2N(C)C(=O)[C@H]1NC(=O)c1ncc(Cc2ccccc2)o1 [US20240270732, Compound I-44] | 14.9 nM
16 | C[C@H]1Oc2ccc(C#CCN3CCN(CC#Cc4ccc5c(c4)N(C)C(=O)[C@@H](NC(=O)c4cn(Cc6ccccc6)nn4)[C@@H](C)O5)CC3)cc2N(C)C(=O)[C@H]1NC(=O)c1cn(Cc2ccccc2)nn1 [US20240270732, Compound I-54] | 14.7 nM
17 | C#CCN1CCN(CC#Cc2ccc3c(c2)N(C)C(=O)[C@@H](NC(=O)c2cn(Cc4ccccc4)nn2)[C@@H](C)O3)CC1 [US20240270732, Compound I-53] | 15.1 nM
18 | C[C@H]1Oc2ccc(C#CCOCCOCCOCCOCCOCC#Cc3ccc4c(c3)N(C)C(=O)[C@@H](NC(=O)c3ncn(Cc5ccccc5)n3)[C@@H](C)O4)cc2N(C)C(=O)[C@H]1NC(=O)c1ncn(Cc2ccccc2)n1 [US20240270732, Compound I-84-1] | 8.99 nM
19 | C#CCN1CCN(CC#Cc2ccc3c(c2)N(C)C(=O)[C@@H](NC(=O)c2cn(Cc4ccccc4)cn2)[C@H](C)O3)CC1 [US20240270732, Compound I-63] | 59.2 nM
20 | C[C@H]1Oc2ccc(C#CCN3CCN(CC#Cc4ccc5c(c4)N(C)C(=O)[C@@H](NC(=O)c4n[nH]c(Cc6ccncc6)n4)[C@@H](C)O5)CC3)cc2N(C)C(=O)[C@H]1NC(=O)c1n[nH]c(Cc2ccncc2)n1 [US20240270732, Compound I-66] | 18.8 nM

Results, then the molecule that gave them:

Row | IC50 | SMILES
21 | 9.35 nM | C[C@H]1Oc2ccc(C#Cc3cccc(S(=O)(=O)O)c3)cc2N(C)C(=O)[C@H]1NC(=O)c1n[nH]c(Cc2ccccc2)n1 [US20240270732, Compound I-113]
22 | 4.84 nM | C[C@H]1Oc2ccc(CCCN3CCN(CCCc4ccc5c(c4)N(C)C(=O)[C@@H](NC(=O)c4n[nH]c(Cc6ccccc6)n4)[C@@H](C)O5)CC3)cc2N(C)C(=O)[C@H]1NC(=O)c1n[nH]c(Cc2ccccc2)n1 [US20240270732, Compound I-124]
23 | 6.58 nM | CN1C(=O)[C@@H](NC(=O)c2n[nH]c(Cc3ccccc3)n2)COc2ccc(C#CCOCCOCCOCCOCCOCC#CC#CCOCCOCCOCCOCCOCC#Cc3ccc4c(c3)N(C)C(=O)[C@@H](NC(=O)c3n[nH]c(Cc5ccccc5)n3)CO4)cc21 [US20240270732, Compound I-88]
24 | 2.54 nM | COCCOCCOCCOCCOCC#Cc1ccc2c(c1)N(C)C(=O)[C@@H](NC(=O)c1ncn(Cc3ccccc3)n1)[C@@H](C)O2 [US20240270732, Compound I-101]
25 | 1.47 nM | COCCOCCOCCOCCOCC#Cc1ccc2c(c1)N(C)C(=O)[C@@H](NC(=O)c1n[nH]c(Cc3ccccc3)n1)CO2 [US20240270732, Compound I-100]
26 | 7.91 nM | C[C@H]1Oc2ccc(C#CCOCCOCCOCCOCCOCC#Cc3ccc4c(c3)N(C)C(=O)[C@@H](NC(=O)c3ncn(Cc5ccccc5)n3)CO4)cc2N(C)C(=O)[C@H]1NC(=O)c1ncn(Cc2ccccc2)n1 [US20240270732, Compound I-86]
27 | 8.03 nM | C#CCOCCOCCOCCOCCOCC#Cc1ccc2c(c1)N(C)C(=O)[C@@H](NC(=O)c1ncn(Cc3ccccc3)n1)[C@@H](C)O2 [US20240270732, Compound I-84-2]
28 | 18.5 nM | CN(CCCC#Cc1ccc2c(c1)N(C)C(=O)[C@@H](NC(=O)c1n[nH]c(Cc3ccccc3)n1)CO2)CCCC#Cc1ccc2c(c1)N(C)C(=O)[C@@H](NC(=O)c1n[nH]c(Cc3ccccc3)n1)CO2 [US20240270732, Compound I-96]
29 | 4.85 nM | C[C@H]1Oc2ccc(C#CCCO)cc2N(C)C(=O)[C@H]1NC(=O)c1n[nH]c(Cc2ccccc2)n1 [US20240270732, Compound I-105]
30 | 5.89 nM | CN1C(=O)[C@@H](NC(=O)c2n[nH]c(Cc3ccccc3)n2)COc2ccc(C#CCN3CCN(CC#CC#CCN4CCN(CC#Cc5ccc6c(c5)N(C)C(=O)[C@@H](NC(=O)c5n[nH]c(Cc7ccccc7)n5)CO6)CC4)CC3)cc21 [US20240270732, Compound I-92]
31 | 1.88 nM | COCCOCCOCCOCCOCC#Cc1ccc2c(c1)N(C)C(=O)[C@@H](NC(=O)c1ncn(Cc3ccccc3)n1)CO2 [US20240270732, Compound I-102]
